One series relates to aldosterone. As to the kind of experiment: antialdosterone effect in the experimental model by Hollmann. Type of series: in vivo. Conditions: spironolactone=1. An excerpt: The new compounds of Formula I have the properties of neutralizing or reversing the effect of aldosterone or deoxycorticosterone on the elimination of sodium and potassium. The compounds according to this invention are thus suited for the treatment of certain forms of hypertension, e.g., those treatable by spironolactone, edemas, primary aldosteronism, and other endocrine disturbances caused by aldosterone. They can also be used as diuretics.

In another series the test system is male patients. Conditions: extended treatment of male patients; traced to antiandrogenic side effect; cited from earlier work.
The next series has as its system women. Particulars: ascribed to the gestagenic side effect; cited from earlier work.

“Also recorded” adds a separate entry of the source.

The source of these data is patent US4511565A, “7α-Acylthio-1α,2α-methylene- 3-oxo-17α-pregn-4-ene-21,17-carbolactones, their production and pharmaceutical preparations containing them” (Schering Aktiengesellschaft, priority 1982, dated 1985).

For the compound `CC(=O)S[C@@H]1CC2=CC(=O)[C@@H]3C[C@@H]3[C@]2(C)[C@H]2CC[C@@]3(C)[C@@H]([C@@H]4C[C@@H]4[C@@]34CCC(=O)O4)[C@H]12` [B, 7α-acetylthio-1α,2α;15β,16β-dimethylene-3-oxo-17α-pregn-4-ene-21,17-carbolactone], the Relative antialdosterone effect in the series with aldosterone is reported as 2-3. Same read-out and setting: with `CC(=O)S[C@@H]1CC2=CC(=O)[C@@H]3C[C@@H]3[C@]2(C)[C@H]2CC[C@@]3(C)[C@@H]([C@H]4C[C@H]4[C@@]34CCC(=O)O4)[C@H]12` [C, 7α-acetylthio-1α,2α;15α,16α-dimethylene-3-oxo-17α-pregn-4-ene-21,17-carbolactone] the figure was 3-4. Consider `CC(=O)S[C@@H]1CC2=CC(=O)CC[C@]2(C)[C@H]2CC[C@@]3(C)[C@@H](CC[C@@]34CCC(=O)O4)[C@H]12` [Spironolactone, spironolactone], for which, in the series with male patients, the “undesirable endocrine side effects in men” value is given as “gynecomastia; also recorded: impotence”. In addition, in the series with women, the “side effects on women” value was “amenorrhea; also recorded: menstrual irregularities”.
